Data reported in patent publication US20220411448A1, “CHROMENE-4-ONE DERIVATIVES AS BRAIN-DERIVED NEUROTROPHIC FACTOR (BDNF) MIMETICS” (FLORATEK PHARMA AG, priority 2019, published 2022).

Columns and labels:
Format in all cases: cell-based, mouse
[1] = test system: organotypic hippocampal brain slices with IAA lesion; test: Organotypic brain slices, iodoacetic acid injury: cell survival (MTT); conditions: SND118 10 and 30 μM; SND124 30 μM; 7,8 DHF 10 μm; IAA 250 μM for 110 min
Description: Preparation of the organotypic brain slices were performed by decapitation of the P9/P10 mouse pups, removing skin and skull and immersing brains in slicing medium (Opti-MEM 1, […]). Brains were hemisected and hippocampi were isolated. Hippocampi were placed on the cutting disc of a McIlwain Tissue Chopper. […] hippocampal slices were chopped transversely. A number of 4 slices per hippocampus were placed on porous (0.4 μM) transparent membrane inserts (Millipore) and incubated for 1 h on ice in HBSS containing 10 mM glucose. Afterwards inserts were transferred to fresh 24-well plates containing 250-300 μl culture medium (50% MEM/EBSS, 25% horse serum, 25% CMF-HBSS, 25 mM glucose, 0.5% pen/strep). Slices were maintained at 37° C. and 5% CO2.
On DV15, brain slices were pretreated with SND derivatives test compounds and the reference 7,8DHF at various concentrations (between […]) for 30 min, followed by the addition of iodoacetic acid (IAA) at 250 μM for 110 min, when cell survival, MMP and toxicity were measured.
Cell survival was measured by the MTT assay. For the determination of mitochondrial membrane potential, treated organotypic brain slices were loaded with the mitochondrial fluorescent dye, tetramethylrhodamine methyl ester (TMRM) at a final concentration of 100 nM in PBS and incubated for 45 min at 37° C. The TMRM containing solution was aspirated and slices were transferred into new well plates containing the appropriate amount of PBS. Fluorescence was measured with a plate-reader (Cytation 5) using wavelengths of excitation and emission of 548 and 574 nm, respectively (area scan). Values were calculated as percent of control values (vehicle control). Toxicity of the treatment was measured by LDH. No toxicity was observed.

[2] = test system: primary cultures of cerebral cortical astrocytes; test: Glucose uptake ([3H]2-deoxyglucose) in astrocyte cultures; conditions: 10 μM, 30 minutes after application
Description: (§1) Primary cultures of cerebral cortical astrocytes were prepared from Swiss albino newborn mice (1-2 days old) as described [Pellerin L, Magistretti P J. Glutamate uptake into astrocytes stimulates aerobic glycolysis: a mechanism coupling neuronal activity to glucose utilization. Proc Natl Acad Sci USA. 1994 Oct. 25; 91(22):10625-9]. This procedure yields cultures that are >95% immunoreactive for glial fibrillary acidic protein.
(§2) Astrocytes are emerging as having significant roles in several homeostatic processes in the brain [Zuchero J B, Barres B A. Glia in mammalian development and disease. Development 2015 142: 3805-3809]. To evaluate the potential effects of Compound A (10 μM) on astrocyte metabolism, the uptake of glucose and lactate release were measured 30 minutes after application of compounds to the culture (FIGS. 2 and 3).
Glucose utilization by cells was measured using radioactive 2-deoxyglucose, a well-established marker of glucose utilization not metabolized within cells. […]
In order to quantify glucose utilization by cells in the presence of Compound A/SND118, radioactive 2-deoxyglucose, a well-established marker of glucose utilization not metabolized within cells, was used. The radioactivity count is thus proportional to the transport and phosphorylation of glucose that enters into the cells. […]

[3] = test system: astrocytes cultures; test: ROS formation (H2DCF-DA kit); conditions: various concentrations, 2 h
Description: ROS formation has been determined as described [Yang J et al, Lactate promotes plasticity gene expression by potentiating NMDA signalling in neurons. Proc Natl Acad Sci USA. 2014. 111(33):12228-33] using a H2DCF-DA kit (ThermoFisher) as recommended by the manufacturer. Briefly, astrocytes cultures were washed twice with HBSS and incubated for 60 min in 50 μM in HBSS at 37° C. and 5% CO2 in the presence of the dye. After two washing steps with prewarmed HBSS the cells were treated with increasing concentrations of 100 μL Compound A at 37° C. and 5% CO2. Fluorescence intensity was measured after 2 h from the same plate using a fluorescence microplate reader (Safire 2; Tecan) at an excitation wavelength of 485 nm and an emission wavelength of 528 nm.
To assess the effect of Compound A on ROS accumulation in primary neuron cultures, the cells were treated with various concentration of Compound A for 2 hours and ROS was measured as described (FIG. 4).

[4] = test system: primary cultures of cerebral cortical astrocytes; test: Lactate release assay in astrocyte cultures; conditions: various concentrations, 30 minutes after application
Description: as §1, §2
Lactate release into the medium was measured enzymatically by a modification of the enzymatic spectrophotometric method of Rosenberg and Rush [Rosenberg J C, Rush B F. An enzymatic-spectrophotometric determination of pyruvic and lactic acid in blood. Methodologic aspects. Clin Chem. 1966; 12(5):299-307.]. Incubations were carried out exactly as described for [3H]2DG uptake experiments except for the fact that no tracer and no phenol red (which otherwise interferes with the spectrophotometric determination of lactate) were present in the incubation medium. […]

`O=c1cc(-c2ccc(CCCC[P+](c3ccccc3)(c3ccccc3)c3ccccc3)cc2)oc2c(O)c(O)ccc12` [SND118, 4-[4-(7,8-dihydroxy-4-oxo-chromen-2-yl)phenyl]butyltriphenylphosphonium bromide] was tested, and the “cell survival upon IAA lesion (MTT)” value [1] was “statistically increase cell survival”, the “uptake of deoxyglucose (glucose uptake)” value [2] was “increased the uptake of deoxyglucose in the same range as glutamate control” and the ROS accumulation [3] was “decrease in ROS accumulation”. The “release of L-lactate” value [4] was “increased the release of L-lactate”.
